Experimental findings from patent publication US7582789B2, “Ibandronate polymorph” (Hoffmann-La Roche Inc., priority 2005, dated 2009) are described below.

A short description of series [1]: Solubility measurement of crystalline Ibandronate polymorphs in buffer solutions and water (titration). It is filed as physicochemical. Conditions: 25° C. Here is the method:
The solubility of the individual crystalline Ibandronate polymorphs A and B was measured for various solutions. Approximately 10 g of the corresponding polymorph A or B were suspended in three different buffer solutions at pH 2, pH 4 (Titrisol-buffer, citrate/HCl), at pH 7 (methenamine buffer, HCl) or in water. The suspension was stirred for 24 hours at 25° C. and was kept additonally 24 hours without stirring at the same temperature. Solubility was calculated by titration according to the following method.
The residue was filtered, 2 ml of the filtrate taken, 5 ml of Titriplex III solution were added and diluted with water to 100 ml. 2 ml of this solution were added to approximately 0.1 ml of xylenol orange indicator and the pH was adjusted to 6.5 by adding small portions of methenamine buffer solution or 0.1 M hydrochloric acid. The solution is titrated immediately with Th-DCTA-xylenol orange complex until the color changes from yellow to reddish-violet. The endpoint is determined photometrically.

Series [2] can be described thus: Relative thermodynamic stability of Ibandronate polymorphs. Particulars: polymorph A compared with polymorph B.

In general, solubility refers to how much of the substance goes into solution per volume. On to `CCCCCN(C)CCC(O)(P(=O)([O-])O)P(=O)(O)O.O.[Na+]` [Polymorph A, 3-(N-methyl-N-pentyl) amino-1-hydroxypropane-1,1-diphosphonic acid monosodium salt monohydrate], for which the solubility in series [1] (pH 2 Titrisol-buffer (citrate/HCl), stirred 24 h + 24 h without stirring) was determined as 280 g/L; in series [1] (pH 4 Titrisol-buffer (citrate/HCl), stirred 24 h + 24 h without stirring), 276 g/L; in series [1] (pH 7 methenamine buffer/HCl, stirred 24 h + 24 h without stirring) it was 292 g/L; in series [1] (water, stirred 24 h + 24 h without stirring), 278 g/L. The “thermodynamic stability relative to the other polymorph” value in series [2] is given as “thermodynamically more stable”.

Turning to `CCCCCN(C)CCC(O)(P(=O)([O-])O)P(=O)(O)O.O.[Na+]` [Polymorph B, 3-(N-methyl-N-pentyl) amino-1-hydroxypropane-1,1-diphosphonic acid monosodium salt monohydrate], the solubility in series [1] (pH 2 Titrisol-buffer (citrate/HCl), under at least partial conversion to polymorph A) is 274 g/L; in series [1] (pH 4 Titrisol-buffer (citrate/HCl), under at least partial conversion to polymorph A) it was 278 g/L; in series [1] (pH 7 methenamine buffer/HCl, under at least partial conversion to polymorph A), 299 g/L; in series [1] (water, under at least partial conversion to polymorph A, listed as Ibandronate polymorph B, monosodium salt monohydrate), “about 279 g/l”; in series [1] (water, under at least partial conversion to polymorph A, monosodium salt monohydrate), 279 g/L.
